Experiment [1] addresses Voltage-gated inwardly rectifying potassium channel KCNH2 (Homo sapiens, UniProt Q12809). The conditions noted are these: Potency.
Experiment [2] deals with T1, Caspase-3 (Homo sapiens, UniProt P42574).
T1 sequence (P42574 whole entry): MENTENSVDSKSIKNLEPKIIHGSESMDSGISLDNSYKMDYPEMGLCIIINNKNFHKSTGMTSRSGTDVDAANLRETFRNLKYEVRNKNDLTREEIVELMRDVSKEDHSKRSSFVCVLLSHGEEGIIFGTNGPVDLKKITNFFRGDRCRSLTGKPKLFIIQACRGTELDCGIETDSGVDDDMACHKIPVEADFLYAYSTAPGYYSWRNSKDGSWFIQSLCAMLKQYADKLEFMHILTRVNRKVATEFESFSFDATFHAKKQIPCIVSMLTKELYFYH
In kind it is functional.

Experiment [3] addresses T2, Sentrin-specific protease 7 (Homo sapiens, UniProt Q9BQF6).
T2 sequence (Q9BQF6 whole entry): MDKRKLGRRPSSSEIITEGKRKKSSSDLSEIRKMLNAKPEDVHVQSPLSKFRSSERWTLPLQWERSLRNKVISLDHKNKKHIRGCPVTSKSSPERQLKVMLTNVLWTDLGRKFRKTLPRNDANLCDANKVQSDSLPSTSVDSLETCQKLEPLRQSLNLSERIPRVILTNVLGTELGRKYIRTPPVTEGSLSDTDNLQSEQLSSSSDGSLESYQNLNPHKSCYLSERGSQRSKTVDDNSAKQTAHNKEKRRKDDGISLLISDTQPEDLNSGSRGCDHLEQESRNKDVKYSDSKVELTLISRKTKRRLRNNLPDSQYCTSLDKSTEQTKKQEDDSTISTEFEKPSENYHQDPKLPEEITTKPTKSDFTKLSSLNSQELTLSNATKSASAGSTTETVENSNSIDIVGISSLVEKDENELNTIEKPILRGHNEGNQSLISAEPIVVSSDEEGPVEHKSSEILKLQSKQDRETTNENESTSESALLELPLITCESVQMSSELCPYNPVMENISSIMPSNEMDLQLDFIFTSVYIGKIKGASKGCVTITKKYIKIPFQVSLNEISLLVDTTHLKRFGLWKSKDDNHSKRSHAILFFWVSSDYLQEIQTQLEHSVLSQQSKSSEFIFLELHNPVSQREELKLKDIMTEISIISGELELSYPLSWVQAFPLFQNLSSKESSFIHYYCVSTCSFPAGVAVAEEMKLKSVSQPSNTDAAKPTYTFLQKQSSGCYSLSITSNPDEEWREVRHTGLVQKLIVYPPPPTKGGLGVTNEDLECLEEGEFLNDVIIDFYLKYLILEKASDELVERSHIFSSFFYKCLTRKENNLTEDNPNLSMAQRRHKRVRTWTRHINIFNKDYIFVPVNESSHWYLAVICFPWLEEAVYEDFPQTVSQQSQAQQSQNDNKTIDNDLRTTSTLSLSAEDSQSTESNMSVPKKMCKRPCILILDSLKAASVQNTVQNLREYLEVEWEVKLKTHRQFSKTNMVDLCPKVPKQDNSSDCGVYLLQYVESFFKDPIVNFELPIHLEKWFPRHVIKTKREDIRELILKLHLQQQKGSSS
The experiment is classed as functional.

Experiment [4] addresses T3, Sentrin-specific protease 6 (Homo sapiens, UniProt Q9GZR1).
T3 sequence (Q9GZR1 whole entry): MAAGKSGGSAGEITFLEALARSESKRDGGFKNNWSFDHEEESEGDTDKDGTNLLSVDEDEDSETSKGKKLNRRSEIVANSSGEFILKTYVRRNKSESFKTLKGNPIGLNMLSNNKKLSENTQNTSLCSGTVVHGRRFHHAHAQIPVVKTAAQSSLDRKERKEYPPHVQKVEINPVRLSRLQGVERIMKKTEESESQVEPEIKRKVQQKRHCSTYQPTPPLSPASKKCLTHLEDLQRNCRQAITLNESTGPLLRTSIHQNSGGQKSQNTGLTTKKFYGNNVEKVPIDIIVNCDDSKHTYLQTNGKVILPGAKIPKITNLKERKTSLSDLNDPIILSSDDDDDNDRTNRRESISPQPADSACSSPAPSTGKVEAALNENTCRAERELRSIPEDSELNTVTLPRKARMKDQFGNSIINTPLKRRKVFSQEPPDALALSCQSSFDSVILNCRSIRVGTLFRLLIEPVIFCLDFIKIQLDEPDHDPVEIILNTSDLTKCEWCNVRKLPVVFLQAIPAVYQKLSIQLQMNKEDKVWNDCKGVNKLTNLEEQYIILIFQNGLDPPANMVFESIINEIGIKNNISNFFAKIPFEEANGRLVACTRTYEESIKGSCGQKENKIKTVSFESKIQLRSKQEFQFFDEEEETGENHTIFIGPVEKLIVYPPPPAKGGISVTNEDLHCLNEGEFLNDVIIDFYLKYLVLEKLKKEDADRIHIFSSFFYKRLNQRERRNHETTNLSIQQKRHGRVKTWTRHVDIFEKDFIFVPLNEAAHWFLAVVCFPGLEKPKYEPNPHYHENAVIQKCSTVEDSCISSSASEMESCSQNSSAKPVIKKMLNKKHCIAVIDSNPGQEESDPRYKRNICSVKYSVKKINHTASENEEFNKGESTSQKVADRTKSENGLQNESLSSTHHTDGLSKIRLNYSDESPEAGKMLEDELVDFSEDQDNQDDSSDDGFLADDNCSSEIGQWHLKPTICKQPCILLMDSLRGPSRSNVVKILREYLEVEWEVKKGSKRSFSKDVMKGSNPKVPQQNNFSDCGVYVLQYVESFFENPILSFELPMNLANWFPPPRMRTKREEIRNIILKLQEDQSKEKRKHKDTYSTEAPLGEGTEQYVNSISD
In kind it is functional.

For experiment [5], the target named is T4, Sentrin-specific protease 8 (Homo sapiens, UniProt Q96LD8).
T4 sequence (Q96LD8 whole entry): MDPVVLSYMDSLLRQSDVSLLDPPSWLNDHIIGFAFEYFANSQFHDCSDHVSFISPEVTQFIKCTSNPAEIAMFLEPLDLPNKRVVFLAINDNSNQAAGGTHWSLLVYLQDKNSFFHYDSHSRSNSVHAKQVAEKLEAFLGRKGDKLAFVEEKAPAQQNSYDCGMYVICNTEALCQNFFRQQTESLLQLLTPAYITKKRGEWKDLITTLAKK
The experiment is classed as functional.

The target of experiment [6] is T4, Sentrin-specific protease 8. Put plainly: SENP8 protease inhibitors, SAR follow-up, biochemical, luminescence (AID 504501). In kind it is functional.
The target of experiment [7] is T1, Caspase-3. Put plainly: SAR Analysis of small molecule inhibitors of Sentrin-specific proteases (SENPs) using a Caspase-3 Selectivity assay. [Related pubchem assays (depositor defined):AID2540, AID2599, AID434973, AID489001]. The experiment is classed as functional.
Experiment [8] has as its target T3, Sentrin-specific protease 6. The experiment is described as follows: SAR Analysis of small molecule inhibitors of Sentrin-specific protease 6 (SENP6) using a Luminescent assay. [Related pubchem assays (depositor defined):AID2582, AID2599]. The experiment is classed as functional.
Experiment [9] addresses T2, Sentrin-specific protease 7. Put plainly: SENP7 protease inhibitors, SAR follow-up, biochemical, luminescence (AID 504497). The experiment is classed as functional.
The subject of experiment [10] is HeLa. Put plainly: HeLa cell cytotoxicity, dose response, cytotoxicity control for MITF activator project, CellTiter-Glo luminescence, cherry-pick samples (AID 540259). The experiment is classed as functional, cell-based. The note with it: Homo sapiens. On the technique in general: In ATP-based viability assays light output follows the ATP content of the culture.

Experiment [11] addresses T5, Cysteine protease ATG4B (Homo sapiens, UniProt Q9Y4P1).
T5 sequence (Q9Y4P1 whole entry): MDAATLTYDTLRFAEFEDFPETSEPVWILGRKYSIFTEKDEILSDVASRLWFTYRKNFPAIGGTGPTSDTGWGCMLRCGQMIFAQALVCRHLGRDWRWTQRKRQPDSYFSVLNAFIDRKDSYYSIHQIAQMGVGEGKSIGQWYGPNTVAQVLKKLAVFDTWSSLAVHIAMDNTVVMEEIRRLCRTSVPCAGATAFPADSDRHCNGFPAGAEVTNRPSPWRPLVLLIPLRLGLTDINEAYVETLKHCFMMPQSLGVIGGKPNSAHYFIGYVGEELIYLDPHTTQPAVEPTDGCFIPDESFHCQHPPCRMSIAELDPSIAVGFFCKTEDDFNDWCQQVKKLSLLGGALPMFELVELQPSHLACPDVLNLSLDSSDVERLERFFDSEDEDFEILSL
The experiment is classed as functional.

Experiment [12] deals with Phospholipase A2 (Homo sapiens, UniProt P04054). In kind it is functional.
Sequence of Phospholipase A2 (P04054 whole entry): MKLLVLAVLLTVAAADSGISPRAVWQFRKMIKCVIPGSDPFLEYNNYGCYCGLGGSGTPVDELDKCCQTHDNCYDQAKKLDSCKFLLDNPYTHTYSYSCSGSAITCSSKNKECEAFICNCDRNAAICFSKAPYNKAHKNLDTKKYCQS
Experiment [13] addresses T1, Caspase-3. The experiment is described as follows: caspase-3 inhibitors as off-family protease, SAR follow-up, selectivity assay for SENP protease inhibitor project, biochemical, luminescence, set 2 (AID 588599). The experiment is classed as functional.
Experiment [14] has as its target T4, Sentrin-specific protease 8. Put plainly: SENP8 protease inhibitors, SAR follow-up, biochemical, luminescence, set 2 (AID 588601). The experiment is classed as functional.
Experiment [15] relates to CHO. The experiment is described as follows: cytotoxicity in TLR9-MyD88 CHO cells, dose response, cytotoxicity control for TLR9-MyD88 binding inhibitor project, cell-based, luminescence (AID 588339).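 Note: CHO cells stably coexpressing TLR9 and MyD88 fusions from primary screen; compound exposure lasted 48 hours before viability readout.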 The experiment is classed as functional, hamster. The note with it: Cricetulus griseus.
Experiment [16] has as its target Beta Lactamase (Pseudomonas aeruginosa, UniProt Q932Y6). The experiment is described as follows: beta-lactamase reporter inhibitor potency, dose response, artefact control for TLR9-MyD88 binding inhibitor project, BLA reporter cells, FRET fluorescence (AID 588341).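 Note: cell based assay in CHO-K1 cells stably expressing beta-lactamase.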 The experiment is classed as cell-based.

Active and inactive are the calls of the source. Cut-off read from the data, not from the text of the source, for most assays here: actives have a measured IC50 and inactives only a lower limit.

Sequence of Voltage-gated inwardly rectifying potassium channel KCNH2 (Q12809 whole entry): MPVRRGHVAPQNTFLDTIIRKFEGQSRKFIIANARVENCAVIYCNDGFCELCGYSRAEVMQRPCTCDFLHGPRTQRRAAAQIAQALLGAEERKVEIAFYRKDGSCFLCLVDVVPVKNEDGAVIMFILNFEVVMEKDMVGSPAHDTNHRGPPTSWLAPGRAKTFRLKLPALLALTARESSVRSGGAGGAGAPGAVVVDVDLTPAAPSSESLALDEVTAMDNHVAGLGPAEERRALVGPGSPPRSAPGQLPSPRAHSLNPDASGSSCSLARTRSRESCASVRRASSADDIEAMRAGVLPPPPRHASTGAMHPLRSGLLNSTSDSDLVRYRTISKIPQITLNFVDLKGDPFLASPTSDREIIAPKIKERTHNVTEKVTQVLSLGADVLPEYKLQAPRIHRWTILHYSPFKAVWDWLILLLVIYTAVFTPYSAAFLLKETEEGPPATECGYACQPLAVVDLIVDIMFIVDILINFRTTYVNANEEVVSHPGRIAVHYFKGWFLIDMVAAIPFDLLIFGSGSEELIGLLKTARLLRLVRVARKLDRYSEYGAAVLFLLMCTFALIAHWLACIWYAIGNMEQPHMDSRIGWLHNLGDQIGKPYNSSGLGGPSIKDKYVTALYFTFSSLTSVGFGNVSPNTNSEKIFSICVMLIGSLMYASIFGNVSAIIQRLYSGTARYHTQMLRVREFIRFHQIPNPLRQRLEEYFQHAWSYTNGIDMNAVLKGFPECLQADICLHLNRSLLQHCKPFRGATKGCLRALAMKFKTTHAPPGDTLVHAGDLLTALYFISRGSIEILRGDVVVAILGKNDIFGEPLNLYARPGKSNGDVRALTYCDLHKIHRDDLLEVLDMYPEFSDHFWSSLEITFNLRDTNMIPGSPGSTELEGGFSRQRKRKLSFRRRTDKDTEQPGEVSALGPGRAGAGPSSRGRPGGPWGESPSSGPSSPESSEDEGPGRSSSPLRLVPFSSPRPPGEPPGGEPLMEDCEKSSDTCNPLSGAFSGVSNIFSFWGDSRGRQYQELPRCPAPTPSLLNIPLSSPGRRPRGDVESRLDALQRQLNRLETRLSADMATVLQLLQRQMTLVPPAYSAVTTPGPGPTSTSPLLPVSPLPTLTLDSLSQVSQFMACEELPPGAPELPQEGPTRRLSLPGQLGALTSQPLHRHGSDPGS
Sequence of Beta Lactamase (Q932Y6 whole entry): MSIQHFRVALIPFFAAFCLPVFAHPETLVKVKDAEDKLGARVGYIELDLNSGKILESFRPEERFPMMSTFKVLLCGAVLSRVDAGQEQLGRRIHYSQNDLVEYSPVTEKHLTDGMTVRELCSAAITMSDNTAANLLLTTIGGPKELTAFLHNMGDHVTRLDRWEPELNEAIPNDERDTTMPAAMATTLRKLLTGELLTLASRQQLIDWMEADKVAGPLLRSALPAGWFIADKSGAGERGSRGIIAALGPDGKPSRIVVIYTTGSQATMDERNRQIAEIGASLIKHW

For orientation: AC50 means the concentration at which the activity in the assay is half-maximal. For the molecule `COc1cc(CC(C)N)c(OC)cc1I` (stereo not given), in experiment [1], the AC50 was 15.8 µM (inconclusive).
One may read the IC50 as the concentration at which inhibition is half-maximal. Consider `O=C(Nc1ccc(Br)cc1)c1ccc2c(c1)OCO2`, for which the half-inhibitory concentration (IC50) is 22.1 µM (active) in experiment [2]; 3.75 µM (active) in [3]; > 100 µM (inactive) in experiment [4]; > 100 µM (inactive) in [5]; > 99 µM (inactive) in experiment [6]; 8.29 µM (active) in [7]. The IC50 in [8] was > 99 µM (inactive); in [9], 4.45 µM (active).
Regarding `COc1cccc(NC(=O)Nc2ccc3c(c2)nnn3C)c1`, in experiment [10], the AC50 was > 350 µM (inactive).
As to `CC(C)c1ccc(NC2CCCN(C(=O)c3[nH]nc4c3CCC4)C2)cc1` (stereo not given), the IC50 in experiment [11] was 11.8 µM (active); in [12], 5.99 µM (active).
As for `N=C(N)SCCc1cccc(CCSC(=N)N)c1`, the concentration at half-maximal activity (AC50) in experiment [1] was 20 µM (inconclusive).
As to `CC(c1ccccc1)c1nnc(NC(=O)Nc2ccccc2F)s1` (stereo not given), the concentration at half-maximal activity (AC50) in [10] was 52.5 µM (active).
Regarding `Cc1ccc(C(=O)Nc2nc3ccc(Cl)cc3s2)o1`, the IC50 was 3 µM (active) in [6]; 2.53 µM (active) in experiment [13]; 1.65 µM (active) in experiment [14]; 11 µM (active) in [7]; 25 µM (active) in [8].
With `Nc1ccccc1-c1noc(/C=C/c2ccccc2Cl)n1`, the IC50 in [6] is > 99 µM (inactive); in experiment [7], > 99 µM (inactive); in experiment [8] it was > 99 µM (inactive); in experiment [9], 71.3 µM (active).
Regarding `COc1ccc(/C=N/Nc2ccc([N+](=O)[O-])cc2)cc1O`, the values for the IC50 in experiment [15] and in experiment [16] were 45.1 µM (inactive) and 10.7 µM (inactive), respectively.

These data come from ChEMBL document CHEMBL1201862, “PubChem BioAssay data set” (2004).
